From patent US4172143A, “2-Methoxy-benzamide derivatives” (priority 1974, dated 1979) come the findings set out here.

The subject of data set [1] is stereotypies induced by apomorphine. The data set can be described thus: Antagonism towards stereotypies induced by apomorphine in rats (method of Janssen). The format is in vivo, male Sprague-Dawley (Charles River) rats. As to conditions: for ED50: Rattus norvegicus, read-out: Antagonism to stereotypies induced by apomorphine in rats, AD 50; for Antagonism to stereotypies induced by apomorphine in rats, AD 50: oral; for antagonism to stereotypies induced in rats by apomorphine: oral administration. The source says:
(1) Antagonism towards stereotypies induced by apomorphine in male Sprague-Dawley (Charles River) rats of average weight 130 g, in accordance with the method of Janssen and colleagues (Arzneim. Forsch. 1960, 10, 1003).
(§1) In these two tests, the results are expressed by the 50% active doses (AD 50).

A further data set is described as follows: in vivo. The following applies: for LD50 at 48 h: LD 50 over 48 hours. Here is the method:
The compounds were administered in the form of their hydrochlorides or of their methanesulphonates.
The acute toxicity was evaluated in Swiss CDl mice of both sexes, of average weight 20 g. The 50% lethal dose (LD 50) of each product was determined by a graphical method.

Data set [2] has as its system emetic effect induced by apomorphine. As to the kind of experiment: Antagonism towards emetic effect induced by apomorphine in dogs. The format is in vivo. As to conditions: Canis lupus familiaris, emesis induced by apomorphine, read-out: Antiemetic activity in dogs, AD 50. The source says: Some compounds have also antiemetic activity which was studied with the following test:
(4) Antagonism towards emetic effect induced by apomorphine in dogs (Shallek et al, Arch. Int. Pharmacodyn. 174 (1968) N°. 2, 350-372. Boissier et al, Med. Exp. 6 (1962), 320-326). The results are expressed in active doses 50% (AD 50) and set in Table IX.

A short description of data set [3]: Catalepsy-inducing effect in rats (method of Tedeschi). The format is in vivo, male Sprague-Dawley (Charles River) rats. As to conditions: for TD50: rat, in vivo, ip.
From the text: (2) Catalepsy-inducing effect in rats of the same species and of the same weight, in accordance with the method of Tedeschi and colleagues (Arch. Intern. Pharmacodyn. 1959, 122, 129).
as §1

Data set [4] can be described thus: Protection against a stress due to an environment and new feedstuffs (method of Stephens). As to conditions: dose producing 40% increase in feedstuff taken, * no activity was observed up to this dose; for ED40: Mus musculus, po, read-out: Protection against stress in mice, AD 40. It counts as in vivo, mice. The procedure: (3) Protection against a stress due to an environment and due to new feedstuffs, in male […] (CDl strain, weight about 20 g) in accordance with the method of Stephens (Brit. J. Pharmacol. 1973, 49, 146 P.). The doses (AD 40) which produce a 40% increase in the feedstuff taken were determined.

Data set [5] can be described thus: Neuro-pharmacological tests (overall conclusion). The format is in vivo. The source says: The neuro-pharmacological activity was studied with the aid of the following three tests: […]
[6] abbreviates: ip, intraperitoneal, results for hydrochlorides given in weight of base.
Where [7] appears, read: mouse, in vivo, ip, intraperitoneal, mice.
Where [8] appears, read: po, hydrochlorides in weight of base, * = no activity was observed up to this dose.
The mark [9] stands for this setting: hydrochlorides in weight of base, * = no activity was observed up to this dose.

Molecules are shown by their SMILES. Counter-ions that a name gives are not always drawn. Like-named read-outs stand apart in the source and are kept apart here. Bounds are passed on as bounds.

As for `COc1ccc(S(N)(=O)=O)cc1C(=O)NCC1CCCN1CC1CC1` (racemic) [SL-C.036 (racemic) (cl), N-[(1-cyclopropylmethyl-pyrrolidinyl-2)-methyl]-2-methoxy-5-sulphamoyl-benzamide], the ED50 in data set [1] (setting [6]) is 15 mg/kg; in data set [2], 0.037 mg/kg. For the same compound, the median lethal dose (LD50) at 48 h in the data set “in vivo” (setting [7]) worked out at 400 mg/kg.

Regarding `COc1ccc(S(N)(=O)=O)cc1C(=O)NCC1CCCN1Cc1ccc(F)cc1` (racemic) [SL-C.205 (racemic) (cl), N-[(1-p-fluorobenzyl-pyrrolidinyl-2)-methyl]-2-methoxy-5-sulphamoyl-benzamide], the ED50 was 30 mg/kg in data set [1] (setting [6]) and 85 mg/kg in data set [1] (setting [8]). The compound also registered a TD50 in data set [3] of more than 480 mg/kg. In addition, the median lethal dose (LD50) at 48 h in “in vivo” (setting [7]) is 750 mg/kg. In “in vivo” (mouse, in vivo, po, LD 50, oral, mice, 7 days), this compound returned an LD50 at 168 h of 3000 mg/kg.

Take `COc1ccc(S(N)(=O)=O)cc1C(=O)NCC1CCCN1Cc1ccc(F)cc1` (racemic) [SL-C.205 (racemic) (ms), N-[(1-p-fluorobenzyl-pyrrolidinyl-2)-methyl]-2-methoxy-5-sulphamoyl-benzamide]: the “Antagonism to stereotypies induced by apomorphine in rats, AD 50” value (“Antagonism to stereotypies induced … AD 50” below) in data set [1] (hydrochlorides in weight of base, * = no activity was observed up to this dose, racemic (ms)) was 75 mg/kg. Also, in data set [4], the ED40 is 60 mg/kg. This compound also returned a median lethal dose (LD50) at 48 h in the data set “in vivo” (mouse, in vivo, iv, mice) of 190 mg/kg.

As to `COc1ccc(S(N)(=O)=O)cc1C(=O)NCC1CCCN1Cc1ccc(F)cc1` (single isomer, unassigned) [SL-C.205 1 (ms), N-[(1-p-fluorobenzyl-pyrrolidinyl-2)-methyl]-2-methoxy-5-sulphamoyl-benzamide], the “activity in neuro-pharmacological tests” value in data set [5] (in vivo) was “practically inactive”. Besides, the “Antagonism to stereotypies induced … AD 50” value in data set [1] (setting [9]) was more than 150 mg/kg. Moreover, the ED40 in data set [4] was more than 30 mg/kg. The compound also had an LD50 at 48 h in “in vivo” (mouse, in vivo, iv, mice) of 160 mg/kg.

For the compound `COc1ccc(S(N)(=O)=O)cc1C(=O)NCC1CCCN1Cc1ccc(F)cc1` (single isomer, unassigned) [SL-C.205 d (ms), N-[(1-p-fluorobenzyl-pyrrolidinyl-2)-methyl]-2-methoxy-5-sulphamoyl-benzamide], in data set [5] (depending on the chosen method of evaluation), the “activity relative to the racemic compound” value is reported as 1.5 times or twice. Besides, the “Antagonism to stereotypies induced … AD 50” value in data set [1] (setting [9]) amounted to 50 mg/kg. Besides, in data set [4] (oral), the “Protection against stress in mice, AD 40” value worked out at 30 mg/kg. In addition, in the data set “in vivo” (mouse, in vivo, iv), the “LD 50 over 48 hours” value came out at 160 mg/kg.

For the compound `COc1ccc(S(N)(=O)=O)cc1C(=O)NCC1CCCN1C(C)c1ccccc1` (single isomer, unassigned) [SL-D.222 (cl), 1(-)-N-[(1-α-methylbenzyl-pyrrolidinyl-2-)-methyl]-2-methoxy-5-sulphamoyl-benzamide], the 50% lethal dose (LD50) at 48 h in the data set “in vivo” (setting [7]) was 625 mg/kg.

As to `COc1ccc(S(N)(=O)=O)cc1C(=O)NCC1CCCN1C(C)c1ccccc1` (single isomer, unassigned) [SL-D.223 (cl)], the “LD 50 over 48 hours” value in “in vivo” (mouse, in vivo, ip, 2880 min) worked out at 650 mg/kg.

Consider `COc1ccc(S(N)(=O)=O)cc1C(=O)NC[C@@H]1CCCN1CC1CCCCC1` [77 205 (S) (+) (ms)], for which the ED50 in data set [2] amounted to 0.014 mg/kg.

As to `COc1ccc(S(N)(=O)=O)cc1C(=O)NC[C@@H]1CCCN1CC1CC1` [77.075 (S) (+) (ms), N-[(1-cyclopropylmethyl-pyrrolidinyl-2)-methyl]-2-methoxy-5-sulphamoyl-benzamide], the ED50 in data set [1] (setting [6]) was found to be 4 mg/kg. The LD50 at 48 h in “in vivo” (setting [7]) worked out at 350 mg/kg.

For the compound `COc1ccc(S(=O)(=O)N(C)C)cc1C(=O)NCC1CCCN1CC1CC1` (stereo not shown) [77.149], the values for the ED50 in data set [1] (setting [6]) and in data set [2] were 3 mg/kg and 0.04 mg/kg, respectively. In the data set “in vivo” (setting [7]), the 50% lethal dose (LD50) at 48 h is 240 mg/kg.

In the case of `COc1ccc(S(C)(=O)=O)cc1C(=O)NCC1CCCN1CC1CC1` (stereo not shown) [77.173], the ED50 in data set [1] (setting [6]) came out at 1.5 mg/kg. For the same compound, the median lethal dose (LD50) at 48 h in the data set “in vivo” (setting [7]) was 235 mg/kg.

Consider `COc1ccc(S(N)(=O)=O)cc1C(=O)NCC1CCCN1CC1CCCCC1` (stereo not shown) [77.205], for which the ED50 in data set [1] (setting [6]) was 8 mg/kg. Besides, the LD50 at 48 h in “in vivo” (setting [7]) was 360 mg/kg.

Turning to `CCS(=O)(=O)c1ccc(OC)c(C(=O)NCC2CCCN2CC2CC2)c1` (stereo not shown) [77.206], in data set [1] (setting [6]), the ED50 came out at 3 mg/kg. The compound also gave an LD50 at 48 h in “in vivo” (setting [7]) of 310 mg/kg.

Regarding `COc1ccc(S(N)(=O)=O)cc1C(=O)NCC1CCCN1Cc1cccc(Cl)c1` (stereo not shown) [SL-C.193 (cl)], the TD50 in data set [3] is more than 300 mg/kg.

Regarding `COc1ccc(S(N)(=O)=O)cc1C(=O)NCC1CCCN1Cc1ccc(F)cc1` (stereo not shown) [SL-C.205, N-[(1-p-fluorobenzyl-pyrrolidinyl-2)-methyl]-2-methoxy-5-sulphamoyl-benzamide], the “activity compared with Sulpiride” value in data set [5] (than Sulpiride) is on record as “markedly more active”. The “antagonism to stereotypies induced in rats by apomorphine” value in data set [1] is “powerful antagonistic agent”. In addition, in data set [3] (up to high doses), the induction of catalepsy result is listed as “does not induce catalepsy up to high doses”. In addition, the “toxicity compared with Sulpiride” value in the data set “in vivo” (than Sulpiride) is reported as “much less toxic”.

Take `C#CCN1CCCC1CNC(=O)c1cc(S(N)(=O)=O)ccc1OC` (stereo not shown) [SL-C.299 (cl)]: in data set [1] (setting [6]), the ED50 came out at 80 mg/kg. For the same compound, the TD50 in data set [3] was more than 150 mg/kg. Further, the LD50 at 48 h in “in vivo” (setting [7]) stood at 170 mg/kg.

`COc1ccc(S(N)(=O)=O)cc1C(=O)NCC1CCCN1C(c1ccccc1)c1ccccc1` (stereo not shown) [SL-D.090 (cl)]: the LD50 at 48 h in “in vivo” (setting [7]) was more than 1500 mg/kg.

As to `COc1ccc(S(C)(=O)=O)cc1C(=O)NCC1CCCN1Cc1ccc(F)cc1` (stereo not shown) [SL-D.163 (cl)], the ED50 in data set [1] (setting [6]) came out at 3 mg/kg. In addition, in the data set “in vivo” (setting [7]), the LD50 at 48 h is 400 mg/kg.

In the case of `COc1ccc(Cl)cc1C(=O)NCC1CCCN1Cc1ccc(F)cc1` (stereo not shown) [SL-D.165 (cl), N-[(1-p-fluorobenzyl-pyrrolidinyl-2)-methyl]-2-methoxy-5-chloro-benzamide], the ED50 in data set [1] (setting [6]) amounted to 1.5 mg/kg. Besides, the ED40 in data set [4] was 30 mg/kg. The compound further had an LD50 at 48 h in “in vivo” (setting [7]) of 275 mg/kg.

Consider `COc1ccc(S(N)(=O)=O)cc1C(=O)NCC1CCCN1Cc1ccccc1F` (stereo not shown) [SL-D.192 (cl)], for which, in data set [4], the ED40 was determined as 30 mg/kg. In addition, the LD50 at 48 h in the data set “in vivo” (setting [7]) was more than 2000 mg/kg.

For `COc1ccc(S(N)(=O)=O)cc1C(=O)NCC1CCCN1Cc1cccc(F)c1` (stereo not shown) [SL-D.193 (cl), N-[(1-m-fluorobenzyl-pyrrolidinyl-2)-methyl]-2-methoxy-5-sulphamoyl-benzamide], the ED50 in data set [1] (setting [6]) is 150 mg/kg. Further, the ED40 in data set [4] came to 30 mg/kg. This compound also returned an LD50 at 48 h in the data set “in vivo” (setting [7]) of more than 2000 mg/kg.

For the compound `COc1ccc(S(N)(=O)=O)cc1C(=O)NCC1CCCN1CC=Cc1ccc(F)cc1` (stereo not shown) [SL-D.194 (cl)], the LD50 at 48 h in the data set “in vivo” (setting [7]) was more than 2000 mg/kg.

On to `COc1ccc(S(N)(=O)=O)cc1C(=O)NCC1CCCN1CCC#N` (stereo not shown) [Sl-C.262 (cl), N-[1-(2-cyanoethyl)-pyrrolidinyl-2-methyl]-2-methoxy-5-sulphamoyl-benzamide], for which the LD50 at 48 h in the data set “in vivo” (setting [7]) was more than 2000 mg/kg.

Regarding `CCN1CCCC1CNC(=O)c1cc(S(N)(=O)=O)ccc1OC` (stereo not shown) [Sulpiride (cl), N-[(1-ethylpyrrolidinyl-2)-methyl]-2-methoxy-5-sulphamoyl-benzamide hydrochloride, reference compound], the ED50 was 60 mg/kg in data set [1] (setting [6]) and more than 600 mg/kg in data set [1] (setting [8]). The “antagonism to stereotypies induced in rats by apomorphine” value in data set [1] was “inactive”. In addition, the TD50 in data set [3] was more than 100 mg/kg.
